Source: ChEMBL document CHEMBL3822454, “On the vasoprotective mechanisms underlying novel β-phosphorylated nitrones: Focus on free radical characterization, scavenging and NO-donation in a biological model of oxidative stress” (Eur J Med Chem, 2016)
The source made the active and inactive calls. The calls are words filed in the database; no cut-off is given here.

Experiments:
[1] = Cytotoxicity against BAECs assessed as decrease in total intracellular LDH content at 15 mM measured after 3 hrs by LDH assay relative to vehicle control; type: cell-based, Bos taurus; design: scale not given: the % may be the effect or the level left; details: cattle, baec, 15000 µM
[2] = tested on: Aorta; assay: (§1) Protection against NADPH-induced superoxide-mediated tissue damage in Sprague-Dawley rat endothelium-intact aortic rings assessed as decomposition of methyl radical adduct preincubated for 30 mins at 200 uM in presence of DTC prior to NADPH addition after 60 mins followed by renewal of media with NADPH-compound mixture measured after 4 days by EPR spectroscopy relative to control; type: functional
[3] = Antioxidant activity assessed as DPPH scavenging activity measured after 3 mins by spectrophotometric method; type: physicochemical
[4] = Cytotoxicity against BAEC assessed as reduction in cell viability measured after 24 hrs by MTT assay; design: species or system Bos taurus; details: cattle
[5] = tested on: A549; assay: Cytotoxicity against human A549 cells assessed as reduction in cell viability measured after 48 hrs by FMCA assay; type: cell-based; details: A549, 48 h
[6] = Induction of nitric oxide release in water using Fe2+-MGD2 as nitric oxide trap at pH 6.56 measured 70 mins post UV-photolysis in dark condition by EPR spectroscopy; type: physicochemical; details: buffer, pH 6.56, 70 min
[7] = tested on: Aorta; assay: (§2) Vasoprotective activity against oxidative stress-induced impairment of ACh-stimulated vasorelaxation in Sprague-Dawley rat endothelium-intact aortic rings assessed as reduction in L-phenylephrine hydrochloride-induced contraction preincubated for 10 to 20 mins in presence of xanthine-xanthine oxidase system at 200 uM prior to L-phenylephrine hydrochloride addition relative to ACh; type: functional
[8] = tested on: Aorta; assay: as §2, with “system” for “system at 200 uM”, “addition” for “addition relative to ACh”; type: functional
[9] = tested on: A549; assay: Cytotoxicity against human A549 cells assessed as reduction in cell viability measured after 24 hrs by MTT assay; type: cell-based; details: a549, 24 h
[10] = Antioxidant activity assessed as AAPH free radical scavenging activity measured as trolox equivalent by TRAP assay; type: physicochemical
[11] = Cytotoxicity against BAECs assessed as reduction in cell viability measured after 24 hrs by neutral red assay; details: Bos taurus, BAEC
[12] = tested on: A549; assay: Cytotoxicity against human A549 cells assessed as reduction in cell viability measured after 48 hrs by luminescence-based ATP assay; details: A549, 48 h
[13] = Antioxidant activity assessed as inhibition of […]-xanthine oxidase system-mediated superoxide formation measured over 7 mins by lucigenin-based chemiluminescence analysis; type: physicochemical
[14] = tested on: Aorta; assay: Protection against NADPH-induced superoxide-mediated tissue damage in Sprague-Dawley rat endothelium-intact aortic rings assessed as inhibition of protein carbonyl formation at 200 uM pre-incubated for 30 mins in presence of DTC prior to NADPH addition measured after 60 mins using 7-hydrazino-4-nitrobenzo-2,1,3-oxadiazole by fluorimetric analysis; type: functional
[15] = tested on: Aorta; assay: Potentiation of SNP-induced vasorelaxant activity in Sprague-Dawley rat endothelium-intact aortic rings assessed as reduction in L-phenylephrine hydrochloride-induced contraction at 200 uM relative to SNP; type: functional
[16] = tested on: A549; assay: Cytotoxicity against human A549 cells assessed as reduction in cell viability measured after 48 hrs by MTT assay; type: cell-based; details: A549, 48 h
[17] = Induction of nitric oxide release in water using Fe2+-MGD2 as nitric oxide trap at pH 6.56 incubated in ambient light for 4.5 hrs by EPR spectroscopy; type: physicochemical; details: buffer, pH 6.56, 4.5 h
[18] = tested on: Aorta; assay: Protection against superoxide-mediated tissue damage in Sprague-Dawley rat endothelium-intact aortic rings assessed as methyl radical adduct formation preincubated for 30 mins at 200 uM in presence of DTC measured after 4 days by EPR spectroscopy; type: functional
[19] = tested on: Aorta; assay: Toxicity in Sprague-Dawley rat endothelium-intact aortic rings at 15 mM measured after 20 mins; details: 15000 µM
[20] = tested on: Aorta; assay: as §1, with “as” for “as decomposition of”, “formation pre-incubated” for “preincubated”, “addition measured” for “addition”, “20 mins in presence of DPI” for “4 days”, “spectroscopy” for “spectroscopy relative to control”; type: functional
[21] = biological target: Xanthine dehydrogenase/oxidase (Homo sapiens, UniProt P47989); assay: Inhibition of xanthine oxidase (unknown origin) using xanthine as substrate assessed as inhibition of uric acid formation at 1 to 100 uM after 30 mins by spectrophotometric method; details: 0.5 h
[22] = Cytotoxicity against BAEC assessed as decrease in total intracellular LDH content at 15 mM measured after 1 hr by LDH assay relative to vehicle-treated control; type: cell-based, Bos taurus; design: scale not given: the % may be the effect or the level left; details: cattle, 15000 µM
[23] = Half life of the compound in phosphate buffer at pH 6 by UV-illumination; type: ADME

Chain of Xanthine dehydrogenase/oxidase (P47989 whole entry): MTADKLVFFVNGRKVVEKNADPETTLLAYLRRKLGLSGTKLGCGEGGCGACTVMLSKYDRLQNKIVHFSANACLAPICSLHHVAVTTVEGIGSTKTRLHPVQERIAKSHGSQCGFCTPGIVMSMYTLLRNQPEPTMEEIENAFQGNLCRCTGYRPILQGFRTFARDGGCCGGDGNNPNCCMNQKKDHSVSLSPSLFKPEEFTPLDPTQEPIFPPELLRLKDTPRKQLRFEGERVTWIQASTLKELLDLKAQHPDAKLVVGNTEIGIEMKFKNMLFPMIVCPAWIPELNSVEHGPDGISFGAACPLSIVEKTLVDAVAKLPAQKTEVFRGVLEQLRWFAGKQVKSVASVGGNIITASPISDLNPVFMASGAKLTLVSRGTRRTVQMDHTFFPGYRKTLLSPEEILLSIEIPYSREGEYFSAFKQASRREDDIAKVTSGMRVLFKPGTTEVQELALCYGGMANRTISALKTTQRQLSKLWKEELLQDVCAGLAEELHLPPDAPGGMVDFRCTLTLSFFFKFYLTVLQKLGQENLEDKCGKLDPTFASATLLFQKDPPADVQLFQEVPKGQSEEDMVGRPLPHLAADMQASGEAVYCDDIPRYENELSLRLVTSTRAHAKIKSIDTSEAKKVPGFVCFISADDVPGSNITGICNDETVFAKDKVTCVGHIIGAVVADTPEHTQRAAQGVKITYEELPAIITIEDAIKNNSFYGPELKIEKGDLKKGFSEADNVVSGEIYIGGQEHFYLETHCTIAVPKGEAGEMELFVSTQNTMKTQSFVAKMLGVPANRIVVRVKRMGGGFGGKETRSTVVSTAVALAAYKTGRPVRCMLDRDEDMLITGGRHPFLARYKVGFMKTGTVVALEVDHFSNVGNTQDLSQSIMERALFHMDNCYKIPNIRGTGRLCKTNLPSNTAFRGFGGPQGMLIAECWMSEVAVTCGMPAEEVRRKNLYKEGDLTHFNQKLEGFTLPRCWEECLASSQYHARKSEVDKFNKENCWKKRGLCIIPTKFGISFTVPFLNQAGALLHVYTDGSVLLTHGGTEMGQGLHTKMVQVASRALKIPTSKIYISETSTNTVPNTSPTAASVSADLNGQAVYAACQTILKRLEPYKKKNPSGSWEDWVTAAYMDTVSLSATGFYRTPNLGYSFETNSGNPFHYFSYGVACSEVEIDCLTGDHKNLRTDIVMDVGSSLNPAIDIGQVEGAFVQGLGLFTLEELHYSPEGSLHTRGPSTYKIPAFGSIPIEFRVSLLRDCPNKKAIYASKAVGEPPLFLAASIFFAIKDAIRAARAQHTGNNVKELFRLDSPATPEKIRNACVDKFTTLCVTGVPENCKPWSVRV

| Structure (SMILES) | Activity [1] [%] | Activity [2] [%] | EC50 [3] [mM] | IC10 [4] [mM] | IC50 [5] [mM] | Activity [6] | Rmax [7] [%] | EC50 [8] [µM] | IC10 [9] [mM] | Activity [10] [equiv] | IC50 [12] [mM] | IC50 [13] [mM] | inhibition [14] | Rmax [15] [%] | IC50 [16] [mM] | other results |
| --- | --- | --- | --- | --- | --- | --- | --- | --- | --- | --- | --- | --- | --- | --- | --- | --- |
| CC(C)(C)/[N+]([O-])=C/c1ccccc1 | 10 | 25 | > 1 | 2.4 | 11.4 | Not Active | 62 | 0.174 | 5.1 | 0.02 | 9.6 | > 4 | inactive | 98 | 10.8 | IC50 [11]: 9.4 mM |
| CCOP(=O)(OCC)C(C)(C)/[N+]([O-])=C/c1ccc(Cl)cc1 | – | – | – | – | – | Active | – | – | – | – | – | – | – | – | – | Activity [17]: Active |
| CCOP(=O)(OCC)C(C)(C)/[N+]([O-])=C/c1cc(OC)c(O)c(OC)c1 | 8 | < 5 | 0.19 | 2.6 | 12 | – | 77 | 0.0676 | 6.1 | 1.44 | 14.8 | 0.0721 | Active | 101 | 15.3 | Activity [18]: inactive; Activity [19]: Non-toxic; Activity [20]: inactive; inhibition (INH) [21]: Not Active; Activity [22]: < 10% |
| CC(C)(C)N([O])C(O)c1ccccc1 (configuration not stated) | – | – | – | – | – | – | – | – | – | – | – | – | – | – | – | half-life [23]: 1.5 min |
| CCOP(=O)(OCC)C(C)(C)/[N+]([O-])=C/c1ccccc1 | 19 | 30 | > 1 | 1.1 | 12.6 | – | 75 | 0.148 | 4.9 | 0.02 | 10.8 | 0.375 | Active | 100 | 12.4 | – |
